# Measured values taken from patent US12390437B2, “Itaconic acid derivatives and uses thereof intreating an inflammatory disease or a disease associated with an undesirable immune response” (Sitryx Therapeutics Limited, priority 2019, dated 2025).
# Where a name gives a salt, the structure may show the parent alone.
# Test system: NRF2
# Assay: NRF2 +/-GSH activation assay (DiscoverX PathHunter NRF2 translocation kit, U2OS cells)
# Assay type: cell-based
# Settings: Homo sapiens, U2OS; Table 10; assay of Biological Example 5 (NRF2); read-out: EC50
# Method in brief: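 PathHunter U2OS cells, plated 24 hrs, measured NRF2 nuclear translocation by enzyme-fragment complementation luminescence after 6 hours compound exposure at 37 °C. For +GSH, compound was pre-incubated 30 minutes with GSH (6 mM working stock). EC50 from % activation normalised to dimethyl fumarate high control.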
row,SMILES,EC50
1,"COC(=O)/C=C/C(=O)OC [dimethyl fumarate, reference compound]",5.6 µM
2,"C=C(CC(=O)O[C@H](C)CCCCCC)C(=O)OCC(=O)O [Example 112, (R)-2-((2-methylene-4-(octan-2-yloxy)-4-oxobutanoyl)oxy)acetic acid]",8.9 µM
3,"C=C(CC(=O)OC)C(=O)OC [dimethyl itaconate, reference compound]",21.4 µM

# Same assay, conditions: Homo sapiens, U2OS; Table 10; assay of Biological Example 5 (NRF2); read-out: Emax
row,SMILES,Emax
1,"COC(=O)/C=C/C(=O)OC [dimethyl fumarate, reference compound]",102%
2,"C=C(CC(=O)O[C@H](C)CCCCCC)C(=O)OCC(=O)O [Example 112, (R)-2-((2-methylene-4-(octan-2-yloxy)-4-oxobutanoyl)oxy)acetic acid]",173%
3,"C=C(CC(=O)OC)C(=O)OC [dimethyl itaconate, reference compound]",137%

# Same assay, conditions: Homo sapiens, U2OS; normalised to dimethyl fumarate 'High' control; GSH condition not stated in Table 5; read-out: NRF2 activation Emax
row,SMILES,Emax
1,"C=C(CC(=O)O[C@H](CC)CCCCC)C(=O)OCC(=O)O [Example 178, (R)-2-(2-methylene-4-(octan-3-yloxy)-4-oxobutanoyloxy)acetic acid]",188%
2,"C=C(CC(=O)OC1CC2(CCC2)C1)C(=O)OCC(=O)O [Example 96, 2-((2-methylene-4-oxo-4-(spiro[3.3]heptan-2-yloxy)butanoyl)oxy)acetic acid]",180%
3,"C=C(CC(=O)O[C@@H](C)CCCCCC)C(=O)OCCC(=O)O [Example 84, (S)-3-((2-methylene-4-(octan-2-yloxy)-4-oxobutanoyl)oxy)propanoic acid]",185%
4,"C=C(CC(=O)OC1CCCCCCC1)C(=O)OCCC(=O)O [Example 82, 3-((4-(cyclooctyloxy)-2-methylene-4-oxobutanoyl)oxy)propanoic acid]",164%
5,"C=C(CC(=O)OC1CCCCCCC1)C(=O)OCC(=O)O [Example 90, 2-((4-(cyclooctyloxy)-2-methylene-4-oxobutanoyl)oxy)acetic acid]",157%
6,"C=C(CC(=O)O[C@H](C)CCCCCC)C(=O)OCc1nn[nH]n1 [Example 161, (R)-1-((2H-tetrazol-5-yl)methyl) 4-(octan-2-yl) 2-methylenesuccinate]",146%
7,"C=C(CC(=O)OC(C)(C)CCCCCC)C(=O)OCC(=O)O [Example 192, 2-((2-methylene-4-((2-methyloctan-2-yl)oxy)-4-oxobutanoyl)oxy)acetic acid]",194%
8,"COC(=O)/C=C/C(=O)OC [dimethyl fumarate, reference compound]",102%
9,"C=C(CC(=O)O[C@H](C)CCCCCC)C(=O)OCC(=O)O [Example 112, (R)-2-((2-methylene-4-(octan-2-yloxy)-4-oxobutanoyl)oxy)acetic acid]",173%
10,"C=C(CC(=O)OC)C(=O)OC [dimethyl itaconate, reference compound]",137%

# Same assay, conditions: Homo sapiens; U2OS PathHunter cells, 6 hours; GSH condition not stated in Table 5; read-out: NRF2 activation EC50
row,SMILES,EC50
1,"C=C(CC(=O)O[C@H](CC)CCCCC)C(=O)OCC(=O)O [Example 178, (R)-2-(2-methylene-4-(octan-3-yloxy)-4-oxobutanoyloxy)acetic acid]",14.3 µM
2,"C=C(CC(=O)OC1CC2(CCC2)C1)C(=O)OCC(=O)O [Example 96, 2-((2-methylene-4-oxo-4-(spiro[3.3]heptan-2-yloxy)butanoyl)oxy)acetic acid]",21.2 µM
3,"C=C(CC(=O)O[C@@H](C)CCCCCC)C(=O)OCCC(=O)O [Example 84, (S)-3-((2-methylene-4-(octan-2-yloxy)-4-oxobutanoyl)oxy)propanoic acid]",6.3 µM
4,"C=C(CC(=O)OC1CCCCCCC1)C(=O)OCCC(=O)O [Example 82, 3-((4-(cyclooctyloxy)-2-methylene-4-oxobutanoyl)oxy)propanoic acid]",26.5 µM
5,"C=C(CC(=O)OC1CCCCCCC1)C(=O)OCC(=O)O [Example 90, 2-((4-(cyclooctyloxy)-2-methylene-4-oxobutanoyl)oxy)acetic acid]",29.4 µM
6,"C=C(CC(=O)O[C@H](C)CCCCCC)C(=O)OCc1nn[nH]n1 [Example 161, (R)-1-((2H-tetrazol-5-yl)methyl) 4-(octan-2-yl) 2-methylenesuccinate]",5 µM
7,"C=C(CC(=O)OC(C)(C)CCCCCC)C(=O)OCC(=O)O [Example 192, 2-((2-methylene-4-((2-methyloctan-2-yl)oxy)-4-oxobutanoyl)oxy)acetic acid]",11.8 µM
8,"COC(=O)/C=C/C(=O)OC [dimethyl fumarate, reference compound]",5.6 µM
9,"C=C(CC(=O)O[C@H](C)CCCCCC)C(=O)OCC(=O)O [Example 112, (R)-2-((2-methylene-4-(octan-2-yloxy)-4-oxobutanoyl)oxy)acetic acid]",8.9 µM
10,"C=C(CC(=O)OC)C(=O)OC [dimethyl itaconate, reference compound]",21.4 µM

# Test system: not listed separately
# Assay: Hepatocyte stability assay (human)
# Assay type: in vitro ADME
# Settings: cryopreserved hepatocytes, 10 μM compound, 0.5×10^6 cells/mL, 60 minutes, read-out: T½
# From the text: (§1) Defrosted cryo-preserved hepatocytes (viability >70%) are used to determine the metabolic stability of a compound via calculation of intrinsic clearance (Clint; a measure of the removal of a compound from the liver in the absence of blood flow and cell binding). Clearance data are particularly important for in vitro work as they can be used in combination with in vivo data to predict the half-life and oral bioavailability of a drug.
# (§2) The metabolic stability in hepatocytes assay involves a time-dependent reaction using both positive and negative controls. The cells must be pre-incubated at 37° C. then spiked with test compound (and positive control); samples taken at pre-determined time intervals are analysed to monitor the change in concentration of the initial drug compound over 60 minutes. A buffer incubation reaction (with no hepatocytes present) acts as a negative control and two cocktail solutions, containing compounds with known high and low clearance values (verapamil/7-hydroxycoumarin and propranolol/diltiazem), act as positive controls. • 1. The assay is run with a cell concentration of 0.5×10^6 cells/mL in Leibovitz buffer. • 2. All compounds and controls are run in duplicate. • 3. Compound concentration is 10 μM. • 4. All compounds and controls are incubated with both cells and buffer to show turnover is due to hepatic metabolism. • 5. All wells on the incubation plate will have 326.7 μL of either cells or buffer added. • 6. Prior to assay, cell and buffer-only incubation plates are preincubated for 10 mins at 37° C. • 7. The assay is initiated by adding compounds, 3.3 μL of 1 mM in 10% DMSO-90% Buffer; final DMSO concentration is 0.1%. • 8. Samples are taken at regular timepoints (0, 5, 10, 20, 40, 60 min) until 60 mins. • 9. Sample volume is 40 μL and it is added to 160 μL of crash solvent (acetonitrile with internal standard) and stored on ice. • 10. At the end of the assay, the crash plates are centrifuged at 3500 rpm for 20 mins at 4° C. • 11. 80 μL of clear supernatant is removed and mixed with 80 μL of deionised water before being analysed by LC-MS/MS.
# (§3) Raw LC-MS/MS data are exported to, and analysed in, Microsoft Excel for determination of intrinsic clearance. The percentage remaining of a compound is monitored using the peak area of the initial concentration as 100%. Intrinsic clearance and half-life values are calculated using a graph of the natural log of percentage remaining versus the time of reaction in minutes. Half-life (min) and intrinsic clearance (Clint in μL min^−1 10^−6 cells) values are calculated using the gradient of the graph (the elimination rate constant, k) and Equations 1 and 2.
row,SMILES,half-life at 10 μM
1,"C=C(CC(=O)OC1CC2(CCC2)C1)C(=O)OCC(=O)O [Example 96, 2-((2-methylene-4-oxo-4-(spiro[3.3]heptan-2-yloxy)butanoyl)oxy)acetic acid]",126 min
2,"C=C(CC(=O)O[C@@H](C)CCCCCC)C(=O)OCCC(=O)O [Example 84, (S)-3-((2-methylene-4-(octan-2-yloxy)-4-oxobutanoyl)oxy)propanoic acid]",16 min
3,"C=C(CC(=O)OC1CCCCCCC1)C(=O)OCCC(=O)O [Example 82, 3-((4-(cyclooctyloxy)-2-methylene-4-oxobutanoyl)oxy)propanoic acid]",91 min
4,"C=C(CC(=O)OC1CCCCCCC1)C(=O)OCC(=O)O [Example 90, 2-((4-(cyclooctyloxy)-2-methylene-4-oxobutanoyl)oxy)acetic acid]",183 min
5,"C=C(CC(=O)O[C@H](C)CCCCCC)C(=O)OCc1nn[nH]n1 [Example 161, (R)-1-((2H-tetrazol-5-yl)methyl) 4-(octan-2-yl) 2-methylenesuccinate]",22 min
6,"C=C(CC(=O)OC(C)(C)CCCCCC)C(=O)OCC(=O)O [Example 192, 2-((2-methylene-4-((2-methyloctan-2-yl)oxy)-4-oxobutanoyl)oxy)acetic acid]",54 min
7,"C=C(CC(=O)O[C@H](C)CCCCCC)C(=O)OCC(=O)O [Example 112, (R)-2-((2-methylene-4-(octan-2-yloxy)-4-oxobutanoyl)oxy)acetic acid]",25 min

# Test system: hepatocytes
# Assay: Hepatocyte stability assay (human)
# Assay type: in vitro ADME
# Settings: 10 μM compound, 0.5×10^6 cells/mL, 60 minutes
# From the text: as §1, §2, §3
row,SMILES,CIint (μL min^−1 10^−6 cells)
1,"C=C(CC(=O)OC1CC2(CCC2)C1)C(=O)OCC(=O)O [Example 96, 2-((2-methylene-4-oxo-4-(spiro[3.3]heptan-2-yloxy)butanoyl)oxy)acetic acid]",11 μL min^−1 10^−6 cells
2,"C=C(CC(=O)O[C@@H](C)CCCCCC)C(=O)OCCC(=O)O [Example 84, (S)-3-((2-methylene-4-(octan-2-yloxy)-4-oxobutanoyl)oxy)propanoic acid]",86 μL min^−1 10^−6 cells
3,"C=C(CC(=O)OC1CCCCCCC1)C(=O)OCCC(=O)O [Example 82, 3-((4-(cyclooctyloxy)-2-methylene-4-oxobutanoyl)oxy)propanoic acid]",15 μL min^−1 10^−6 cells
4,"C=C(CC(=O)OC1CCCCCCC1)C(=O)OCC(=O)O [Example 90, 2-((4-(cyclooctyloxy)-2-methylene-4-oxobutanoyl)oxy)acetic acid]",8 μL min^−1 10^−6 cells
5,"C=C(CC(=O)O[C@H](C)CCCCCC)C(=O)OCc1nn[nH]n1 [Example 161, (R)-1-((2H-tetrazol-5-yl)methyl) 4-(octan-2-yl) 2-methylenesuccinate]",55 μL min^−1 10^−6 cells
6,"C=C(CC(=O)OC(C)(C)CCCCCC)C(=O)OCC(=O)O [Example 192, 2-((2-methylene-4-((2-methyloctan-2-yl)oxy)-4-oxobutanoyl)oxy)acetic acid]",32 μL min^−1 10^−6 cells
7,"C=C(CC(=O)O[C@H](C)CCCCCC)C(=O)OCC(=O)O [Example 112, (R)-2-((2-methylene-4-(octan-2-yloxy)-4-oxobutanoyl)oxy)acetic acid]",65 μL min^−1 10^−6 cells

# Test system: not listed separately
# Assay: Hepatocyte stability assay (mouse)
# Assay type: in vitro ADME
# Settings: cryopreserved hepatocytes, 10 μM compound, 0.5×10^6 cells/mL, 60 minutes, read-out: T½
# From the text: as §1, §2, §3
row,SMILES,half-life at 10 μM
1,"C=C(CC(=O)OC1CC2(CCC2)C1)C(=O)OCC(=O)O [Example 96, 2-((2-methylene-4-oxo-4-(spiro[3.3]heptan-2-yloxy)butanoyl)oxy)acetic acid]",12 min
2,"C=C(CC(=O)O[C@@H](C)CCCCCC)C(=O)OCCC(=O)O [Example 84, (S)-3-((2-methylene-4-(octan-2-yloxy)-4-oxobutanoyl)oxy)propanoic acid]",6 min
3,"C=C(CC(=O)OC1CCCCCCC1)C(=O)OCCC(=O)O [Example 82, 3-((4-(cyclooctyloxy)-2-methylene-4-oxobutanoyl)oxy)propanoic acid]",27 min
4,"C=C(CC(=O)OC1CCCCCCC1)C(=O)OCC(=O)O [Example 90, 2-((4-(cyclooctyloxy)-2-methylene-4-oxobutanoyl)oxy)acetic acid]",30 min
5,"C=C(CC(=O)O[C@H](C)CCCCCC)C(=O)OCc1nn[nH]n1 [Example 161, (R)-1-((2H-tetrazol-5-yl)methyl) 4-(octan-2-yl) 2-methylenesuccinate]",< 3 min
6,"C=C(CC(=O)OC(C)(C)CCCCCC)C(=O)OCC(=O)O [Example 192, 2-((2-methylene-4-((2-methyloctan-2-yl)oxy)-4-oxobutanoyl)oxy)acetic acid]",5 min
7,"C=C(CC(=O)O[C@H](C)CCCCCC)C(=O)OCC(=O)O [Example 112, (R)-2-((2-methylene-4-(octan-2-yloxy)-4-oxobutanoyl)oxy)acetic acid]",13 min

# Test system: hepatocytes
# Assay: Hepatocyte stability assay (mouse)
# Assay type: in vitro ADME
# Settings: 10 μM compound, 0.5×10^6 cells/mL, 60 minutes
# From the text: as §1, §2, §3
row,SMILES,CIint (μL min^−1 10^−6 cells)
1,"C=C(CC(=O)OC1CC2(CCC2)C1)C(=O)OCC(=O)O [Example 96, 2-((2-methylene-4-oxo-4-(spiro[3.3]heptan-2-yloxy)butanoyl)oxy)acetic acid]",112 μL min^−1 10^−6 cells
2,"C=C(CC(=O)O[C@@H](C)CCCCCC)C(=O)OCCC(=O)O [Example 84, (S)-3-((2-methylene-4-(octan-2-yloxy)-4-oxobutanoyl)oxy)propanoic acid]",220 μL min^−1 10^−6 cells
3,"C=C(CC(=O)OC1CCCCCCC1)C(=O)OCCC(=O)O [Example 82, 3-((4-(cyclooctyloxy)-2-methylene-4-oxobutanoyl)oxy)propanoic acid]",52 μL min^−1 10^−6 cells
4,"C=C(CC(=O)OC1CCCCCCC1)C(=O)OCC(=O)O [Example 90, 2-((4-(cyclooctyloxy)-2-methylene-4-oxobutanoyl)oxy)acetic acid]",47 μL min^−1 10^−6 cells
5,"C=C(CC(=O)O[C@H](C)CCCCCC)C(=O)OCc1nn[nH]n1 [Example 161, (R)-1-((2H-tetrazol-5-yl)methyl) 4-(octan-2-yl) 2-methylenesuccinate]",>460 μL min^−1 10^−6 cells
6,"C=C(CC(=O)OC(C)(C)CCCCCC)C(=O)OCC(=O)O [Example 192, 2-((2-methylene-4-((2-methyloctan-2-yl)oxy)-4-oxobutanoyl)oxy)acetic acid]",350 μL min^−1 10^−6 cells
7,"C=C(CC(=O)O[C@H](C)CCCCCC)C(=O)OCC(=O)O [Example 112, (R)-2-((2-methylene-4-(octan-2-yloxy)-4-oxobutanoyl)oxy)acetic acid]",255 μL min^−1 10^−6 cells
